Laboratory results as given in publication PMC9661473.
Blank lines part the entries; values can stand above or below the molecule they belong to. Where a SMILES comes first, the peptide text is derived from it.

How the values were obtained:
[1] = system: 2N3M (DNA, aptamer) TGGTGGTGGTTGTTGTGGTGGTGGTGGT; assay: microscale thermophoresis; settings: 100 mM KCl; 25 mM potassium phosphate, pH 7.05, 25 °C, 200 nM aptamer
[2] = system: DNA TA (unlabeled, NMR) (DNA, aptamer) GGTTGGTGTGGTTGG; assay: 1H 1D and 2D NOESY NMR; settings: 100 mM KCl; 25 mM potassium phosphate, pH 7.4, 298 K, 10% D2O, 500 μM DNA, 2 equiv YER
[3] = system: DNA TA (DNA, aptamer) GGTTGGTGTGGTTGG; assay: microscale thermophoresis, Hill fit; settings: 100 mM KCl; 25 mM PBS, pH 7.05, 25 °C, 200 nM aptamer
[4] = system: RNA TA (RNA, aptamer) GGUUGGUGUGGUUGG; assay: microscale thermophoresis, Hill fit; settings: 100 mM KCl; 25 mM PBS, pH 7.05, 40 °C, 200 nM aptamer
[5] = system: DNA TA (DNA, aptamer) GGTTGGTGTGGTTGG; assay: microscale thermophoresis; settings: 100 mM KCl; 25 mM PBS, pH 7.05, 25 °C, 200 nM aptamer
[6] = system: 2N3M (DNA, aptamer) TGGTGGTGGTTGTTGTGGTGGTGGTGGT; assay: microscale thermophoresis, Hill fit; settings: 100 mM KCl; 25 mM potassium phosphate, pH 7.05, 25 °C, 200 nM aptamer
[7] = target: T1, YER tripeptide (thrombin loop fragment) (UniProt P00734 434-436); assay: MST; 100 mM KCl, 40 C; MST: 200 nM FAM-oligo; 25 mM PBS pH 7.05, 100 mM KCl (DNA TA 25 C, RNA TA 40 C) or 25 mM K-phosphate pH 7.05, 100 mM KCl (2N3M, 25 C), Hill fit; NMR: 500 uM DNA TA, 25 mM K-phosphate pH 7.4, 100 mM KCl, 10% D2O, 298 K; settings: label: 5'-FAM; intramolecular G-quadruplex (modelled)
T1 chain: YER

[8] = target: T2, QET tripeptide (RET analogue) (UniProt P19338 604-606, R604Q); assay: MST; 100 mM KCl, 25 C; MST: 200 nM FAM-oligo; 25 mM PBS pH 7.05, 100 mM KCl (DNA TA 25 C, RNA TA 40 C) or 25 mM K-phosphate pH 7.05, 100 mM KCl (2N3M, 25 C), Hill fit; NMR: 500 uM DNA TA, 25 mM K-phosphate pH 7.4, 100 mM KCl, 10% D2O, 298 K; settings: label: 5'-FAM; intramolecular G-quadruplex
T2 chain: QET

[9] = target: T3, REV tripeptide (RET analogue) (UniProt P19338 604-606, T606V); assay: as above; settings: label: 5'-FAM; intramolecular G-quadruplex
T3 chain: REV

[10] = target: T4, RET tripeptide (nucleolin loop fragment) (UniProt P19338 604-606); assay: as above; settings: label: 5'-FAM; intramolecular G-quadruplex
T4 chain: RET

[11] = target: T1, YER tripeptide (thrombin loop fragment); assay: as above; settings: label: 5'-FAM; intramolecular G-quadruplex
[12] = target: T5, YE dipeptide (UniProt P00734 434-435); assay: as above; settings: label: 5'-FAM; intramolecular G-quadruplex
T5 chain: YE

[13] = target: T6, ER dipeptide (UniProt P00734 435-436); assay: as above; settings: label: 5'-FAM; intramolecular G-quadruplex
T6 chain: ER

[14] = target: T7, RYE tripeptide (thrombin loop fragment) (UniProt P00734 433-435); assay: as above; settings: label: 5'-FAM; intramolecular G-quadruplex
T7 chain: RYE

[15] = target: T8, ERN tripeptide (thrombin loop fragment) (UniProt P00734 435-437); assay: as above; settings: label: 5'-FAM; intramolecular G-quadruplex
T8 chain: ERN

binding [1]: no
Molecule: CC(C)[C@H](NC(=O)[C@H](CCC(=O)O)NC(=O)[C@@H](N)CCCNC(=N)N)C(=O)O (H-Arg-Glu-Val-OH)

Kd [3]: 5 ± 1 µM
Kd [4]: 37 ± 9 µM
Molecule: N=C(N)NCCC[C@H](NC(=O)[C@H](CCC(=O)O)NC(=O)[C@@H](N)Cc1ccc(O)cc1)C(=O)O (H-Tyr-Glu-Arg-OH)
binding [2]: yes

Kd [3]: 52 ± 5 µM
Molecule: N=C(N)NCCC[C@H](N)C(=O)N[C@@H](Cc1ccc(O)cc1)C(=O)N[C@@H](CCC(=O)O)C(=O)O (H-Arg-Tyr-Glu-OH)

binding [5]: no
Molecule: N=C(N)NCCC[C@H](NC(=O)[C@@H](N)CCC(=O)O)C(=O)O (H-Glu-Arg-OH)

binding [5]: no
Molecule: NCCCC[C@H](NC(=O)[C@H](CCC(=O)O)NC(=O)[C@@H](N)Cc1ccc(O)cc1)C(=O)O (H-Tyr-Glu-Lys-OH)

binding [5]: no
Molecule: N[C@@H](Cc1ccc(O)cc1)C(=O)O

Kd [6]: 0.1 ± 0.02 µM
Molecule: C[C@@H](O)[C@H](NC(=O)[C@H](CCC(=O)O)NC(=O)[C@@H](N)CCCNC(=N)N)C(=O)O (H-Arg-Glu-Thr-OH)

binding [1]: no
Molecule: C[C@@H](O)[C@H](N)C(=O)O

binding [5]: no
binding [1]: no
Molecule: N=C(N)NCCC[C@H](N)C(=O)O

binding [5]: no
binding [1]: no
Molecule: N[C@@H](CCC(=O)O)C(=O)O

binding [1]: no
Molecule: C[C@@H](O)[C@H](NC(=O)[C@H](CCC(=O)O)NC(=O)[C@@H](N)CCC(N)=O)C(=O)O (H-Gln-Glu-Thr-OH)

Kd [3]: 12 ± 1 µM
Molecule: N=C(N)NCCC[C@H](NC(=O)[C@@H](N)CCC(=O)O)C(=O)N[C@@H](CC(N)=O)C(=O)O (H-Glu-Arg-Asn-OH)

binding [5]: no
Molecule: NC(N)=NCCC[C@H](NC(=O)[C@H](CCC(=O)O)NC(=O)[C@@H](N)Cc1ccccc1)C(=O)O (H-Phe-Glu-Arg-OH)

binding [5]: no
Molecule: N[C@@H](Cc1ccc(O)cc1)C(=O)N[C@@H](CCC(=O)O)C(=O)O (H-Tyr-Glu-OH)

Molecule: GGUUGGUGUGGUUGG (structured_RNA) [RNA TA (FAM)]
Kd [7]: 37 ± 9 µM

Molecule: TGGTGGTGGTTGTTGTGGTGGTGGTGGT (structured_DNA) [2N3M (AS1411 derivative, FAM)]
binding result [8]: no binding
binding result [9]: no binding
Kd [10]: 0.1 ± 0.02 µM

Molecule: GGTTGGTGTGGTTGG (structured_DNA) [DNA TA (FAM)]
Kd [11]: 5 ± 1 µM
binding result [12]: no binding
binding result [13]: no binding
Kd [14]: 52 ± 5 µM
Kd [15]: 12 ± 1 µM
